Structures can show the parent of a compound that is named as a salt. Where two headings read alike, the source gives them in different places.
Columns and labels:
[1] = Compound cytotoxicity against CaCo-2 cells at 48 hours; type: cell-based, Human; details: human, Table 5, further results of Examples 1 and 2, mean ± spread
Procedure: The cytotoxicity of the profiled compounds towards CaCo-2 cells at 48 hours was assessed. […] After 48 hours, cytotoxicity was evaluated using both digital phase contrast readout as described above and ATP determination (Cell titre-glo, Promega Corp).

[2] = system: SARS-CoV-2; assay: microbe, parasite or virus in culture; details: for inhibition at 10 µM: read-out: % Inh. (% Inhibition of SARS-CoV-2)
[3] = system: SARS-CoV-2; details: for % Inh. (% Inhibition of SARS-CoV-2): 10 µM
[4] = Severe acute respiratory syndrome coronavirus 2, Caco-2, 48 h
[5] = Severe acute respiratory syndrome coronavirus 2, Caco-2, 48 h, read-out: pIC50 (converted)

Molecule	CC50 at 48 h ([1]; CaCo-2 cells)	IC50 [2, 4]	inhibition at 10 µM [2, 4]	IC50 [2, 5]	% Inh. (% Inhibition of SARS-CoV-2) [3]	also measured
Fc1ccc(-c2cncc(CN3CCN(c4cccc5c4OCCO5)CC3)c2)cc1 [Adoprazine]	75.9 ± 54.2 µM	23.4 µM	81.4%	23.4 µM		
C=CCNc1nc(NCC=C)nc(N2CCN(C(c3ccc(F)cc3)c3ccc(F)cc3)CC2)n1 [Almitrine dimesilate]	102 ± 73.6 µM	1.21 µM	93.2%	1.2 µM		
S=C(NCc1ccc2c(c1)OCO2)N1CCN(c2ncnc3c2oc2ccccc23)CC1 [Amuvatinib (MP-470), Amuvatinib]	0.06 ± 0.01 µM			0.0302 µM		
CC(C)c1cc(C(C)C)c(CC(=O)NS(=O)(=O)Oc2c(C(C)C)cccc2C(C)C)c(C(C)C)c1 [Avasimibe (CI-1011), Avasimibe]	13.7 ± 6.18 µM	10.9 µM	91.4%	11 µM		
O=C(Nc1nc(-c2cc(Cl)cs2)c(N2CCN(C3CCCCC3)CC2)s1)c1cnc(N2CCC(C(=O)O)CC2)c(Cl)c1 [Avatrombopag]	20.9 ± 29.5 µM	7.17 µM	95.9%	7.24 µM		
O=c1ccc2ccc(OCCCCN3CCN(c4cccc5sccc45)CC3)cc2[nH]1 [Brexpiprazole]	50.6 ± 68.7 µM	22.9 µM	84.8%	22.9 µM		
CO[C@H]1CC[C@H](N2C(=O)CNc3ncc(-c4ccc(C(C)(C)O)nc4)nc32)CC1 [CC-223]	9.49 ± 2.55 µM	23.6 µM	104%	23.4 µM		
Cc1nc2ccccc2n1Cc1ccc(Cl)cc1 [CHLORMIDAZOLE]	0.88 ± 0.82 µM	> 1 µM				
Cc1cc(C)c(Nc2ccnc(Nc3ccc(C#N)cc3)n2)c(C)c1 [Dapivirine (TMC120), Dapivirine]	5 ± 0.07 µM		108%			
CCOc1ccc(Cc2nccc3cc(OCC)c(OCC)cc23)cc1OCC [ETHAVERINE HYDROCHLORIDE]	11 ± 1.07 µM	0.54 µM	85%	0.537 µM		
COC(=O)C[C@](O)(CCC(C)(C)O)C(=O)O[C@@H]1C(OC)=C[C@]23CCCN2CCc2cc4c(cc2[C@H]13)OCO4 [Harringtonine]		23.7 µM	93.6%	23.4 µM		CC50 at 48 h [1]: 0.07 ± 0.06 µM; IC50 ([2]; Severe acute respiratory syndrome coronavirus 2, Caco-2, read-out: IC50: concentration of 50% inhibition of virus infection, Table 5, further results of Examples 1 and 2, […]): 19 µM; IC50 ([2]; Severe acute respiratory syndrome coronavirus 2, Caco-2, read-out: pIC50: -log10 of IC50, Table 5, further results of Examples 1 and 2 (converted)): 19.1 µM
CC(=O)N1CCN(c2ccc(OCC3COC(Cn4ccnc4)(c4ccc(Cl)cc4Cl)O3)cc2)CC1 (stereo not drawn) [KETOCONAZOLE]	28.6 ± 4.97 µM		87.1%			
Cc1c(C(=O)Nc2ccc(N3C[C@@H](C)O[C@@H](C)C3)nc2)cccc1-c1ccc(OC(F)(F)F)cc1 [LDE225 (NVP-LDE225, Erismodegib), Erismodegib]	2.26 ± 1.28 µM	7.03 µM	93.5%	7.08 µM		
Cc1cc(-c2ncc(CC(=O)Nc3ccc(-c4cnccn4)cn3)cc2C)ccn1 [LGK-974]	7.61 ± 0.06 µM	2.33 µM	105%	2.34 µM		
CC(C)(C)Cn1c(N)nc2ccc(-c3[nH]c(C(C)(C)C)nc3-c3ccc(F)cc3)nc21 [LY2228820, Ralimetinib]	56.2 ± 9.79 µM		112%			
NC(=O)N1CCC(CC(=O)N2CCC([C@H]3c4ncc(Br)cc4CCc4cc(Cl)cc(Br)c43)CC2)CC1 [Lonafarnib (SCH66336), Lonafarnib]	10.7 ± 7.39 µM					
Cc1cccc(C)c1OCC(=O)N[C@@H](Cc1ccccc1)[C@@H](O)C[C@H](Cc1ccccc1)NC(=O)[C@H](C(C)C)N1CCCNC1=O [Lopinavir (ABT-378), Lopinavir]	2130 ± 3590 µM		56.6%			
CCOC(=O)O[C@]1(C(=O)OCCl)CC[C@H]2[C@@H]3CCC4=CC(=O)C=C[C@]4(C)[C@H]3[C@@H](O)C[C@@]21C [Loteprednol etabonate]	49 ± 45.9 µM	21.3 µM	102%	21.4 µM		
OC(c1cc(C(F)(F)F)nc2c(C(F)(F)F)cccc12)C1CCCCN1 (stereo not drawn) [MEFLOQUINE HYDROCHLORIDE]	33 ± 7.96 µM	28.9 µM	93.3%	28.8 µM		
CC(C)S(=O)(=O)NC[C@H](C)c1ccc(-c2ccc(CCNS(C)(=O)=O)cc2)cc1 [Mibampator]	8.66 ± 1.75 µM	2.23 µM	90.1%	2.24 µM		
CCCCCCCCN=c1ccn(CCCCCCCCCCn2ccc(=NCCCCCCCC)cc2)cc1 [Octenidine Dihydrochloride]	2.4 ± 0.09 µM	1.14 µM	77%	1.15 µM		

Molecule	CC50 at 48 h ([1]; CaCo-2 cells)	IC50 [2, 4]	inhibition at 10 µM [2, 4]	IC50 [2, 5]	% Inh. (% Inhibition of SARS-CoV-2) [3]	also measured
CNC(=O)c1ccc(C)c(-n2c(C)cc(OCc3ccc(F)cc3F)c(Br)c2=O)c1 [PH-797804]	20 ± 3.1 µM	20.7 µM	81.5%	20.4 µM		
FC(F)(F)c1ccc(CNc2ccc(Cc3c[nH]c4ncc(Cl)cc34)cn2)cn1 [Pexidartinib]	41.5 ± 32.5 µM	5.92 µM		5.89 µM		
CC[C@@H]([C@H](C)O)n1ncn(-c2ccc(N3CCN(c4ccc(OC[C@@H]5CO[C@@](Cn6cncn6)(c6ccc(F)cc6F)C5)cc4)CC3)cc2)c1=O [Posaconazole]	14.6 ± 0.67 µM	2.37 µM		2.34 µM		
CNC(=O)c1cc(Oc2ccc(NC(=O)Nc3ccc(Cl)c(C(F)(F)F)c3)c(F)c2)ccn1 [Regorafenib (BAY 73-4506), Regorafenib]	0.97 ± 0.6 µM		91.5%			
CNC(=O)c1cc(Oc2ccc(NC(=O)Nc3ccc(Cl)c(C(F)(F)F)c3)cc2)ccn1 [Sorafenib Tosylate]	1.17 ± 0.43 µM	1.21 µM	78.7%	1.2 µM		
Cn1c(C#N)ccc1-c1ccc2c(c1)C(C)(C)OC(=S)N2 [Tanaproget]		> 1 µM	96.2%	1.12 µM		IC50 [3]: 1.13 µM
CC(=O)[C@@]12O[C@](C)(c3ccccc3)O[C@@H]1C[C@H]1[C@@H]3CCC4=CC(=O)CC[C@]4(C)[C@H]3CC[C@@]12C [algestone-acetophenide]					96.0%	
CN1CC[C@H](c2c(O)cc(O)c3c(=O)cc(-c4ccccc4Cl)oc23)[C@H](O)C1 [alvocidib]	0.06 µM		87.8%			
COc1ccc(C[C@H]2NC[C@H](O)[C@H]2OC(C)=O)cc1 [anisomycin]					88.1%	
NC(=O)N/N=C/c1ccc(Oc2ccc(F)cc2)cc1 [co-102862]					55.2%	
C=C[C@@]1(C)CC(=O)[C@]2(O)[C@@]3(C)[C@@H](O)CCC(C)(C)[C@@H]3[C@H](OC(=O)CCN(C)C)[C@H](OC(C)=O)[C@@]2(C)O1 [colforsin-daproate]					80.3%	
CCOc1ccc(/C=C2\NCCc3cc(OCC)c(OCC)cc32)cc1OCC [drotaverine]	9 ± 0.96 µM		93.1%			
Fc1ccc(C(c2ccc(F)cc2)N2CCN(C/C=C/c3ccccc3)CC2)cc1 [flunarizine]	137 ± 72.3 µM		79.1%			
Cc1cc(/C=C2\SC(=O)N(c3ccccc3)C2=O)c(C)n1-c1cccnc1 [iCRT-14]					82.5%	
CC(C)c1ccc2c(c1)CC[C@H]1[C@](C)(CN)CCC[C@]21C [lylamine]					76.4%	
Cc1cc(-c2nc3cc(F)ccc3s2)ccc1NC(=O)[C@@H](N)CCCCN.Cl.Cl [phortress]					67.1%	
Cc1ccnc(NC(=O)C(C)c2cccc(C(=O)c3ccccc3)c2)c1 (stereo not drawn) [piketoprofen]					72.4%	
CC[N+](C)(CC)CCC[n+]1c(-c2ccccc2)c2cc(N)ccc2c2ccc(N)cc21.[I-].[I-] [propidium-iodide]					69.7%	
N#Cc1ccc(-c2csc(NN=C3CCCC3)n2)cc1 [remodelin]					99.4%	
O=C1OC2(c3cc(I)c(O)c(I)c3Oc3c2cc(I)c(O)c3I)c2c(Cl)c(Cl)c(Cl)c(Cl)c21 [rose-bengal-lactone]					57.6%	
Fc1ccc(CNc2ncnc3ccc(F)cc23)cc1 [spautin-1]					92.1%	

Molecule	CC50 at 48 h ([1]; CaCo-2 cells)	IC50 [2, 4]	inhibition at 10 µM [2, 4]	IC50 [2, 5]	% Inh. (% Inhibition of SARS-CoV-2) [3]	also measured
c1cc2c(cc1C1CCCCC1)c1c3n2CCNC3CCC1 (stereo not drawn) [tetrindole]					75.2%	
CCn1c(=O)n(C2=C(CO)CN(CC3CCCCCCC3)CC2)c2ccccc21 [trap-101]					77.9%	
Afatinib (dimaleate)					60.2%	
Chlorophyllin (sodium copper salt)					66.7%	
Exatecan Mesylate					70.1%	
GSK9027					64.1%	
I-BET151 (GSK1210151A)					56.0%	
Lasofoxifene (Tartrate)					54.3%	
MONENSIN SODIUM						% Inh (% inhibition of virus infection) ([3]; comparative experiments, Examples 1 and 2): 103.2%
NI-57					78.3%	
Nizofenone fumarate					52.4%	
Rupatadine Fumarate					72.1%	
SNS-314 methanesulfonate					81.4%	
Skepinone-L					86.1%	
TC-I-2014					97.8%	
Taltobulin (trifluoroacetate)					83.8%	
Tocofersolan					95.2%	
hemin					62.9%	
niguldipine-(S)-(+)					93.0%	
verteporfin					139.9%	

Source: US20230126310A1 (priority 2020, published 2023)
